“Also recorded” adds a separate entry of the source. Non-standard residues stand in square brackets, D forms with d. Residues, ends and D or L forms follow the SMILES beside them. Sar = CNCC(=O)O
What was measured:
PEPT-1 [1] = target: T1, PEPT-1 (Homo sapiens, UniProt P46059); experiment: Inhibition of PEPT-1 mediated Gly-Sar uptake in Caco-2 cells (UPLC-MS/MS quantification of intracellular Gly-Sar); assay type: cell-based; settings: for IC50: 7 d differentiation, 37 °C, pH = 6.0, three independent experiments; for Ki: converted from IC50 with the IC50-to-Ki tool, assuming competitive inhibition and a Km of 860 µM for Gly-Sar, read-out: calculated Ki
T1 construct: allowed to differentiate for at least 7 d to ensure sufficient PEPT-1 expression; host or cells: Caco-2
T1 sequence (P46059 1-708): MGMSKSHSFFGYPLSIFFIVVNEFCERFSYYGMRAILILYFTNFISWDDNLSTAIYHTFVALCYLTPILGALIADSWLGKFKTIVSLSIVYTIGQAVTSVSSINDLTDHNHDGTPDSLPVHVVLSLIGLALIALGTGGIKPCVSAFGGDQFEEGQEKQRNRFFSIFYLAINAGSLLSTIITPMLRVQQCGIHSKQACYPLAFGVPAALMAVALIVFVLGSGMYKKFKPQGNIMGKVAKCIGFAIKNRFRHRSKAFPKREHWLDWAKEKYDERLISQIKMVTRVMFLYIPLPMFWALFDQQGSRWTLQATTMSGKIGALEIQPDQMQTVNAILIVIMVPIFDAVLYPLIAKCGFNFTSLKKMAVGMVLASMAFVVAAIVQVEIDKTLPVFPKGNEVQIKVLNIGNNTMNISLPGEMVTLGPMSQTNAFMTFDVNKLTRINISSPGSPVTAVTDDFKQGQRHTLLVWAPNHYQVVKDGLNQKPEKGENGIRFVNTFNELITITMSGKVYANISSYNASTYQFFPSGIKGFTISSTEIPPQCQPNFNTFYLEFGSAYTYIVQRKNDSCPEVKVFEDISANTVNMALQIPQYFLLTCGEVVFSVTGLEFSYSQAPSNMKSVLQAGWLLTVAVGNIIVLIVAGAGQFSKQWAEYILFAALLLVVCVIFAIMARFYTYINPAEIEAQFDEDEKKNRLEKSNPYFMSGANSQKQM
Experimental: Caco-2 cells were cultivated in DMEM supplemented with 10% FBS, glutamine (2 mM), penicillin (100 U/mL), streptomycin (100 µg/mL), and 1% NEAS. They were kept at 37 °C and 5% CO2 and passaged once a week. For validation and uptake experiments, cells were seeded in 96-well plates at a density of 6.25 × 10^4 cells/cm^2 and allowed to differentiate for at least 7 d to ensure sufficient PEPT-1 expression. The uptake buffer (MES) was prepared as previously described by Sun et al. and contained 50 mM MES, 136.9 mM NaCl, 5.4 mM KCl, 1.26 mM CaCl2, 0.81 mM MgSO4 × 7 H2O, 0.5 mM Na2HPO4, 0.44 mM KH2PO4, 0.42 mM NaHCO3, and 5.54 mM glucose. The pH value of the uptake buffer was adjusted to pH = 6.0 using either HCl or NaOH solutions. Gly-Sar uptake was tested after 7, 24, and 28 d of Caco-2 cell differentiation. […] After an incubation period of 10 min at 37 °C under gentle agitation, transport was terminated by removing the solution and washing the cells with ice-cold MES buffer (100 µL/well) thrice while the plate was kept on ice. Afterwards, cells were lysed in the 96-well cell culture plate with aqueous NH4OH (10%, 50 µL/well) and sample preparation was performed as described below.
Sample preparation was performed directly in the 96-well cell culture plates. Cell lysates (50 µL) were spiked with 25 µL IS spike solution and, depending on the sample type, with either 5 µL of the respective calibration or QC solution (calibration and QC samples) or with 5 µL H2O/ACN (95/5, v/v) + 0.1% FA for volume compensation (study samples). Subsequently, all samples were filled with 180 µL ACN + 0.1% FA for protein precipitation and centrifuged for 10 min at 800 g. Finally, the 96-well plates were transferred into the Sample Manager for direct injection onto the UPLC-MS/MS system.
The quantification of Gly-Sar in cell homogenates was performed on a UPLC-MS/MS system consisting of a triple-stage quadrupole mass spectrometer (Waters Xevo TQ-XS with Z-spray ESI source) and an Acquity Classic UPLC® (Waters, Milford, MA, USA). Chromatographic separation was achieved on a Waters Cortecs UPLC® HILIC column (90 Å, 1.6 µm, 2.1 × 50 mm) heated to 60 °C with the injection volume set to 10 µL and a flow rate of 0.4 mL/min. The mobile phase consisted of H2O/ACN (95/5, v/v) + 0.1% FA (aqueous eluent; A) and ACN + 0.1% FA (ACN eluent; B). Gly-Sar was eluted with an isocratic composition of 16% A/84% B for 3 min. Subsequently, the conditions were changed to 50% A/50% B within 0.5 min and maintained for 0.5 min to flush the column. Afterwards, the initial ratio of 16% A and 84% B was restored during 0.5 min. The mass spectrometer was operated using an electrospray ionization (ESI) source in the positive ion detection mode. Quantification of Gly-Sar and IS was performed by selected reaction monitoring (SRM) using argon collision gas for collision-induced dissociation (CID). Mass spectrometric parameters were optimized for the detection of Gly-Sar and the IS using the auto-optimization feature IntelliStart of the MassLynx V4.2 system software (Waters, Milford, MA, USA).
Calibration curves were fitted by the Waters TargetLynx V4.2 software (Waters, Milford, MA, USA) using 1/x^2-weighted linear regressions of the peak area ratios of Gly-Sar and the IS. General calculations were performed using Microsoft Excel 2010 ([…]). IC50 values (i.e., the inhibitor concentration, which causes a baseline-normalized half-maximal Gly-Sar uptake) were calculated using the GraphPad Prism 9 software (version 9.1.0; GraphPad Software Inc., La Jolla, CA, USA). Intracellular Gly-Sar concentrations at varying inhibitor concentrations were fitted with nonlinear regression to a four-parameter concentration–response curve (4PL) according to the equation: […]

PEPT-1 [2] = settings: read-out: reported Ki; cited from earlier work
PEPT-1 [3] = target: T1, PEPT-1; set-up: method as in PMID 22490229; settings: cited from earlier work
[4] = Stability of Gly-Sar in processed cell lysate and spike solutions; assay type: physicochemical
Experimental: The assay to quantify Gly-Sar in cell homogenates was validated following the EMA and FDA guidelines on bioanalytical method validation. For this purpose, the linearity, accuracy, precision, selectivity, stability, recovery, and matrix effect of the assay were determined in three validation batches, which included eight calibration samples in duplicates and 24 QC samples at four concentrations (LLOQ, low, mid, and high QC) in sixfold determination. Accuracy (%) is the degree of agreement between the determined value and known true value and was subsequently determined by dividing the quantified mean concentration by the nominal concentration. Precision (% CV) describes the degree of agreement between individual measurements of the same analyte and was calculated by dividing the standard deviation by the quantified mean of the measurements. Chromatograms of blank cell lysate samples from six different cell passage numbers and of corresponding spiked samples were assessed for interfering signals at the retention time of Gly-Sar and IS to determine the selectivity of the method. […] Recovery was evaluated for low, mid, and high QC concentration of Gly-Sar by the comparison of peak areas of QC samples spiked after extraction with the respective peak areas of […] spiked after extraction. […] Gly-Sar integrity was further evaluated in the spike solutions. […]

[5] = Caco-2 cells, 20 µM Gly-Sar, 10 min

| SMILES | IC50 (PEPT-1 [1]; [5]) [µM] | Ki (PEPT-1 [1]) [µM] | Ki (PEPT-1 [2]) [µM] | other results |
| --- | --- | --- | --- | --- |
| CCCCc1nc(Cl)c(CO)n1Cc1ccc(-c2ccccc2-c2nn[nH]n2)cc1 [losartan] | 45.1 ± 15.8 | 44 | 24 | – |
| NCC(=O)N1CCC[C@H]1C(=O)O [Gly-Pro, glycyl-proline] (H-Gly-Pro-OH) | 257 ± 28 | 250 | 300 | – |
| Nc1nc2c(ncn2COCCO)c(=O)[nH]1 [aciclovir] | – | – | – | inhibition of Gly-Sar uptake (in words) (PEPT-1 [1]; Caco-2 cells, 20 µM Gly-Sar, 10 min, pH = 6.0, 0.1–5000 µM inhibitor): no inhibition; also recorded: did not interfere with Gly-Sar uptake; also recorded: did no inhibit the Gly-Sar uptake |
| CN(CC(=O)O)C(=O)CN [Gly-Sar, glycyl-sarcosine] (H-Gly-[Sar]-OH) | – | – | – | Km (PEPT-1 [3]): 860 µM; fraction of Gly-Sar uptake that is PEPT-1 mediated (PEPT-1 [1]; Caco-2 cells, 10 min incubation): around 86%; ratio of bottom to top of the fitted sigmoidal curves (non-inhibited, non-PEPT-1 specific Gly-Sar uptake) (PEPT-1 [1]; mean over all measured IC50 determinations, Caco-2 cells): 14.0 ± 6.7%; deviation of peak areas from the initial values ([4]; samples stored in the autosampler, over 24 h): < 15%; time stable in spike solutions ([4]; spike solutions in H2O/ACN (95/5, v/v) + 0.1% FA): at least 9 months |
| CC(C)[C@H](N)C(=O)OCCOCn1cnc2c(=O)[nH]c(N)nc21 [valaciclovir] | 894 ± 309 | 874 | 740 | – |
